According to PubChem BioAssay (NCI):
Where “and” joins values, the source holds several entries; their conditions need not be identical. Equal values may be shown once.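 Where inhibition never reached the appropriate level, the endpoint shown equals the highest concentration tested. Otherwise, values were interpolated linearly from a five-concentration, 48-hour dose response in 96-well plates. GI50 = concentration required for 50% inhibition of growth. TGI marks complete inhibition of growth.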

What was measured:
Assay in all cases: NCI anticancer screen, dose series, 48 h
ACHN renal = tested on: ACHN renal
CCRF-CEM leukemia = tested on: CCRF-CEM leukemia
HCC-2998 colon = tested on: HCC-2998 colon
MDA-MB-231 breast = tested on: MDA-MB-231 breast
MOLT-4 leukemia = tested on: MOLT-4 leukemia
NCI-H226 lung = tested on: NCI-H226 lung
NCI-H23 lung = tested on: NCI-H23 lung
NCI-H460 lung = tested on: NCI-H460 lung
RPMI-8226 leukemia = tested on: RPMI-8226 leukemia
UACC-257 melanoma = tested on: UACC-257 melanoma

| Compound | GI50 (ACHN renal) [µM] | TGI (ACHN renal) [µM] | GI50 (CCRF-CEM leukemia) [µM] | TGI (CCRF-CEM leukemia) | GI50 (HCC-2998 colon) [µM] | TGI (HCC-2998 colon) | GI50 (MDA-MB-231 breast) [µM] | TGI (MDA-MB-231 breast) [µM] | GI50 (MOLT-4 leukemia) [µM] | TGI (MOLT-4 leukemia) | GI50 (NCI-H226 lung) [µM] | TGI (NCI-H226 lung) | GI50 (NCI-H23 lung) [µM] | TGI (NCI-H23 lung) | GI50 (NCI-H460 lung) [µM] | TGI (NCI-H460 lung) [µM] | GI50 (RPMI-8226 leukemia) [µM] | TGI (RPMI-8226 leukemia) | GI50 (UACC-257 melanoma) [µM] | TGI (UACC-257 melanoma) |
| --- | --- | --- | --- | --- | --- | --- | --- | --- | --- | --- | --- | --- | --- | --- | --- | --- | --- | --- | --- | --- |
| CCCCCCCC/C=C/CCCCCCCC1=NC(C)(C)CN1C(C)(C)CO | 1.81 | 3.52 | 3.04 | 11.4 µM | 1.65 | 3.04 µM | 1.6 | 3.77 | 2.62 | 5.81 µM | 2.87 | 7.61 µM | 1.77 | 3.46 µM | 1.81 | 3.31 | 2.55 | 5.68 µM | 1.76 | 3.54 µM |
| CN1CCN(C2=NC(=O)/C(=C\c3ccc(N(C)C)cc3)S2)CC1 | > 100 | > 100 | 38.4 | > 100 µM | > 100 | > 100 µM | 74.5 | > 100 | 42.2 | > 100 µM | > 100 | > 100 µM | > 100 | > 100 µM | > 100 | > 100 | 32.5 | > 100 µM | > 100 | > 100 µM |
| OCc1ccc(N(Cc2ccc(F)cc2)Cc2ccc(F)cc2)cc1Cl | 10.9 | 23 | 13.1 | 33.9 µM | 14.3 | 30.8 µM | 11.8 | 25.9 | 7.84 | 30.1 µM | 0.466 | 2.03 µM | 7.95 | 24.3 µM | 3.64 | 17.1 | 8.44 | 30.4 µM | 3.74 | 15.6 µM |
| COC1=CC(=O)O/C1=C(\OC)C1OC1c1ccccc1 (stereo unspecified) | – | > 100 | – | > 100 µM | – | > 100 µM | – | > 100 | – | > 100 µM | – | > 100 µM | – | > 100 µM | – | > 100 | – | > 100 µM | – | > 100 µM |
| C[C@@H]1C[C@@H]([C@H](O)CC2CC(=O)NC(=O)C2)C(=O)[C@@H](C)C1 | 0.155 | – | 0.0958 | 1.15 µM and 0.406 µM | 0.325 | 7.93 µM and 3.63 µM | 0.608 | 7.16 | 0.139 | 2.06 µM and 0.518 µM | 0.326 | 7.26 µM and 4.86 µM | 0.274 | 4.78 µM and 0.941 µM | 0.234 | – | 0.451 | 3.02 µM and 0.494 µM | 0.248 | 1.65 µM and 1.03 µM |
| O=C1NC(=NCCc2ccc(Cl)cc2)S/C1=C\c1ccc2ncccc2c1 | 24.6 | > 25 | 12.5 | > 25 µM | > 25 | > 25 µM | > 25 | > 25 | 18.8 | > 25 µM | > 25 | > 25 µM | 23.3 | > 25 µM | 17.8 | > 25 | > 23 | > 25 µM | > 25 | > 25 µM |
| COc1cc(/C=N/NC(=O)c2cnn3c2NC(c2ccccc2)C3)ccc1OC1CCCC1 (stereo unspecified) | 0.666 | 6.04 | 0.691 | 10.8 µM | 3.19 | 19.7 µM | 1.67 | 7.85 | 1.23 | 11.1 µM | 1.64 | 6.12 µM | 1.44 | 8.85 µM | 0.389 | 1.56 | 0.527 | 4.91 µM | 1.45 | 12 µM |
| COc1cc(C2CC(c3ccc(Nc4nc(NCCO)nc(NCCO)n4)cc3)=NN2c2cc(Cl)cc(Cl)c2)cc(OC)c1OC (stereo unspecified) | 2.58 | 13.1 | 2.53 | 10.7 µM | 2.14 | 4.84 µM | 1.45 | 3.44 | 1 | 4.12 µM | 3.85 | 16.8 µM | 2.02 | 4.97 µM | 1.77 | 3.8 | 1.15 | 6.28 µM | 1.86 | 3.87 µM |
| C[C@@]1(F)[C@H](O)[C@@H](CO)O[C@H]1n1ccc(=O)[nH]c1=O | > 100 | > 100 | > 100 | > 100 µM | > 100 | > 100 µM | > 100 | > 100 | > 100 | > 100 µM | > 100 | > 100 µM | > 100 | > 100 µM | > 100 | > 100 | > 100 | > 100 µM | > 100 | > 100 µM |
| COc1ccc(-c2ccc(OC)c(OC)c2OC)cc1 | 8 | > 100 | 2.19 | > 100 µM | 2.65 | 32 µM | 3.21 | > 74.5 | 2.39 | > 100 µM | 17.3 | > 100 µM | 4.19 | > 100 µM | 2.7 | > 48 | 3.27 | > 100 µM | > 73.8 | > 100 µM |
| COc1ccc2[nH]c(C(=O)N3CCN(C(=O)OCc4ccc5c(Cl)cc(Cl)c(O)c5n4)CC3)cc2c1 | 0.592 | 1.87 | 0.275 | 1.67 µM | 1.7 | 3.32 µM | 1.34 | 2.87 | 0.356 | 1.79 µM | 1.18 | 2.56 µM | 1.7 | 3.47 µM | 1.18 | 2.76 | 0.281 | 0.962 µM | 1.41 | 2.8 µM |
| O=C1c2cccc3cccc(c23)C(=O)N1CCCCCN1CCN(CCN=c2cc3n(-c4ccc(Cl)cc4)c4ccccc4nc-3cc2Nc2ccc(Cl)cc2)CC1 | 2.88 | > 50 | 7.38 | 25.2 µM | 8.93 | 31.4 µM | 5.82 | 30.3 | – | – | 35.6 | > 50 µM | 8.52 | 22.3 µM | 13.2 | > 50 | 5.22 | 16.9 µM | 13.7 | 31.1 µM |
